According to patent US11786532B2, “2-pyridones and methods of use thereof” (ALIGOS THERAPEUTICS, INC., priority 2020, dated 2023):

Molecular target: T1, human thyroid receptor beta ligand-binding domain (THR-beta) (Homo sapiens, UniProt P10828)
T1 sequence (P10828 217-461 limits assumed): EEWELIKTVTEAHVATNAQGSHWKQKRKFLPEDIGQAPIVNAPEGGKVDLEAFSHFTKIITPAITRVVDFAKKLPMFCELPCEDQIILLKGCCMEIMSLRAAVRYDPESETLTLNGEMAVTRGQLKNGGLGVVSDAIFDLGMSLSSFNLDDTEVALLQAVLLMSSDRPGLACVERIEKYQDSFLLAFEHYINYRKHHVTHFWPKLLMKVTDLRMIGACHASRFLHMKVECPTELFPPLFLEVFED
Experiment: THR Biochemical Assay (Assay 1): TR-FRET thyroid receptor beta coactivator assay
Conditions: TR-FRET SRC2-2 coactivator recruitment, GST-tagged THR-beta LBD 1 nM, 1 hr at rt; read-out: Assay 1 (EC50, THR-beta agonist activity)
Description: THR Biochemical Assay (Assay 1)
The TR-FRET thyroid receptor beta coactivator assay is to be used. The assay uses a terbium-labeled anti-GST antibody, a glutathione-S-transferase (GST) tagged human thyroid receptor, beta or alpha, ligand-binding domain (LBD), and a fluorescein labeled SRC2-2 coactivator peptide. The antibody interacts with the LBD, where the agonist will also bind, resulting in increased affinity for the SRC2-2 coactivator peptide causing energy transfer of the acceptor fluorophore and a FRET emission shift from 495 to 520 nm. The energy transfer is detected as an increase in the fluorescence emission of the fluorescein acceptor, and a decrease in the fluorescence emission of the terbium donor. The assay is to be performed in a 384-well black plate in a final volume of 20 μL. Serial dilution of various test agonists will be performed in DMSO (1% final DMSO concentration) and added to the test plate. Thyroid receptor beta LBD will usually be added to the plate at a final concentration of 1 nM, followed by the mixture of the fluorescein labeled SRC2-2 coactivator peptide, and the terbium-labeled anti-GST antibody at final concentrations of 200 nM and 2 nM respectively. The assay will often be incubated for 1 hr at rt protected from light. The TR-FRET will then be measured on a Victor multilabel reader (Perkin Elmer) using an excitation wavelength of 340 nm with emission filters of 495 nm and 520 nm. The assay will be quantified by expressing a ratio (520:495) of the intensities, and the resulting activation curves; EC50 values are to be generated using a sigmoidal dose response (variable slope) equation in GraphPad™ Prism 8.0.

## CC(C)n1cc(Oc2c(Cl)cc(-n3nc(N)c(=O)[nH]c3=O)cc2Cl)cc(Cl)c1=O [Example 23, 6-amino-2-(3,5-dichloro-4-((5-chloro-1-isopropyl-6-oxo-1,6-dihydropyridin-3-yl)oxy)phenyl)-1,2,4-triazine-3,5(2H,4H)-dione]
  EC50: 0.05 to 0.25 µM
